Patent US20100078393A1, “BIOCIDAL COMPOSITIONS AND METHODS OF USE” (priority 2008, published 2010)

Experiments:
[1] = tested on: Bacillus subtillus ATCC 8473; test: Biocidal efficacy against aerobic bacteria, log reduction after 1 hour at 37° C.; format: cell-based; details: for Concentration required to achieve 3 log bacterial reduction in 1 hour, used in combination: active weight ratio 1:6; for Concentration required to achieve 3 log bacterial reduction in 1 hour, used alone: ppm active
Method: (§1) The synergy indexes reported in the following examples are calculated using the following equation:
(§2) Synergy Index=Ca/CA+Cb/CB
(§3) A synergy index (SI) of 1 indicates additivity, a synergy index of less than 1 indicates synergy, and a synergy index greater than 1 indicates antagonism.
(§4) Various methods known to those skilled in the art can be used for evaluating biocidal efficacy. In some of the examples below, a serial dilution technique is used, which determines viable bacteria remaining after a treatment regimen. The method is based or adapted (e.g., for high temperature testing or for the presence of sulfide) from the methodology described in inventor's pending international application PCT/US08/075755, filed Sep. 10, 2008, which is incorporated herein by reference.
(§5) A sterile NaCl solution (0.85%) is contaminated with bacterial inoculums at final bacterial concentration of approximately 10^6 CFU/ml. Then, biocide solution (single or in combination) is added into the bacterial suspension at various concentrations and immediately mixed well. After the mixtures are incubated at 37° C. for 1 hour, the viable bacteria left in the solution are determined. Bacterial log reduction is then calculated.

[2] = tested on: Enterobacter aerogenes ATCC 13048; test: as above; format: cell-based; details: for Concentration required to achieve 3 log bacterial reduction in 1 hour, used in combination: active weight ratio 1:6; for Concentration required to achieve 3 log bacterial reduction in 1 hour, used alone: ppm active
Method: as §1, §2, §3, §4, §5

[3] = tested on: Escherichia coli ATCC 11229; test: as above; format: cell-based; details: for Concentration required to achieve 3 log bacterial reduction in 1 hour, used in combination: active weight ratio 1:6; for Concentration required to achieve 3 log bacterial reduction in 1 hour, used alone: ppm active
Method: as §1, §2, §3, §4, §5

[4] = tested on: Klebsiella pneumoniae ATCC 8308; test: as above; format: cell-based; details: for Concentration required to achieve 3 log bacterial reduction in 1 hour, used in combination: active weight ratio 1:6; for Concentration required to achieve 3 log bacterial reduction in 1 hour, used alone: ppm active
Method: as §1, §2, §3, §4, §5

[5] = tested on: Pseudomonas aeruginosa ATCC 10145; test: as above; format: cell-based; details: for Concentration required to achieve 3 log bacterial reduction in 1 hour, used in combination: active weight ratio 1:6; for Concentration required to achieve 3 log bacterial reduction in 1 hour, used alone: ppm active
Method: as §1, §2, §3, §4, §5

[6] = tested on: Pseudomonas putida ATCC 49128; test: as above; format: cell-based; details: for Concentration required to achieve 3 log bacterial reduction in 1 hour, used in combination: active weight ratio 1:6; for Concentration required to achieve 3 log bacterial reduction in 1 hour, used alone: ppm active
Method: as §1, §2, §3, §4, §5

[7] = tested on: Staphylococcus aureus ATCC 6538; test: as above; format: cell-based; details: for Concentration required to achieve 3 log bacterial reduction in 1 hour, used in combination: active weight ratio 1:6; for Concentration required to achieve 3 log bacterial reduction in 1 hour, used alone: ppm active
Method: as §1, §2, §3, §4, §5

[8] = tested on: oil field isolated anaerobic SRB consortium; test: Biocidal efficacy against anaerobic SRB at 40° C., serial dilution method; format: cell-based, sulfate-reducing bacteria (SRB); details: for Concentration required for complete bacterial kill in 1 hour, used alone / Concentration required for 3 log bacterial kill in 2 hours, used alone: ppm active; for Concentration required for complete bacterial kill in 1 hour, used alone: 40° C.; for Concentration required for 3 log bacterial kill in 2 hours, used in combination: concentration of the labelled component
Method: as §1, §2, §3, §4
Inside an anaerobic chamber (Bactron III), a deaerated sterile salt solution (3.1183 g of NaCl, 1.3082 mg of NaHCO3, 47.70 mg of KCl, 72.00 mg of CaCl2, 54.49 mg of MgSO4, 172.28 mg of Na2SO4, 43.92 mg of Na2CO3 in 1 L water) is contaminated with an oil field isolated anaerobic SRB consortium at final bacterial concentrations of about 10^7 CFU/mL. […] […] Bacterial log reduction is then calculated.

[9] = concentration of the labelled component in glutaraldehyde + 4,4-dimethyl-oxazolidine combination
[10] = concentration of the labelled component in glutaraldehyde + 7-ethyl-bicyclooxazolidine combination

Structure (SMILES)	Concentration required to achieve 3 log bacterial reduction in 1 hour, used in combination [1, 9]	Concentration required to achieve 3 log bacterial reduction in 1 hour, used alone [1]	Concentration required to achieve 3 log bacterial reduction in 1 hour, used in combination [2, 9]	Concentration required to achieve 3 log bacterial reduction in 1 hour, used alone [2]	Concentration required to achieve 3 log bacterial reduction in 1 hour, used in combination [3, 9]	Concentration required to achieve 3 log bacterial reduction in 1 hour, used alone [3]	Concentration required to achieve 3 log bacterial reduction in 1 hour, used in combination [4, 9]	Concentration required to achieve 3 log bacterial reduction in 1 hour, used alone [4]	Concentration required to achieve 3 log bacterial reduction in 1 hour, used in combination [5, 9]	Concentration required to achieve 3 log bacterial reduction in 1 hour, used alone [5]	Concentration required to achieve 3 log bacterial reduction in 1 hour, used in combination [6, 9]	Concentration required to achieve 3 log bacterial reduction in 1 hour, used alone [6]	Concentration required to achieve 3 log bacterial reduction in 1 hour, used in combination [7, 9]	Concentration required to achieve 3 log bacterial reduction in 1 hour, used alone [7]	Concentration required for complete bacterial kill in 1 hour, used alone [8]	Concentration required to achieve 3 log bacterial reduction in 1 hour, used in combination [1, 10]	Concentration required to achieve 3 log bacterial reduction in 1 hour, used in combination [2, 10]	Concentration required to achieve 3 log bacterial reduction in 1 hour, used in combination [3, 10]	Concentration required to achieve 3 log bacterial reduction in 1 hour, used in combination [4, 10]	Concentration required to achieve 3 log bacterial reduction in 1 hour, used in combination [5, 10]	also measured
CC1(C)COCN1 [4,4-dimethyl-oxazolidine]	111.3 ppm	296.6 ppm	111.3 ppm	296.6 ppm	111.3 ppm	197.8 ppm	74.2 ppm	197.8 ppm	111.3 ppm	296.6 ppm	111.3 ppm	296.6 ppm	111.3 ppm	296.6 ppm	>1600.0 ppm	–	–	–	–	–	–
O=CCCCC=O [Glutaraldehyde]	18.6 ppm	44.5 ppm	18.6 ppm	44.5 ppm	18.6 ppm	44.5 ppm	12.4 ppm	44.5 ppm	18.6 ppm	44.5 ppm	18.6 ppm	44.5 ppm	18.6 ppm	44.5 ppm	26.3 ppm	12.4 ppm	18.6 ppm	12.4 ppm	12.4 ppm	18.6 ppm	Concentration required to achieve 3 log bacterial reduction in 1 hour, used in combination [6, 10]: 18.6 ppm; Concentration required to achieve 3 log bacterial reduction in 1 hour, used in combination [7, 10]: 18.6 ppm; Concentration required for 3 log bacterial kill in 2 hours, used alone [8]: 8.9 ppm
CCC12COCN1COC2 [7-ethyl-bicyclooxazolidine, 5-ethyl-1-aza-3,7-dioxabicyclo[3.3.0]octane]	–	296.6 ppm	–	296.6 ppm	–	296.6 ppm	–	197.8 ppm	–	296.6 ppm	–	296.6 ppm	–	296.6 ppm	–	74.2 ppm	111.3 ppm	74.2 ppm	74.2 ppm	111.3 ppm	Concentration required to achieve 3 log bacterial reduction in 1 hour, used in combination [6, 10]: 111.3 ppm; Concentration required to achieve 3 log bacterial reduction in 1 hour, used in combination [7, 10]: 111.3 ppm; Concentration required for 3 log bacterial kill in 2 hours, used in combination ([8]; glutaraldehyde:7-ethyl-bicyclooxazolidine weight ratio 1:1): 5.9 ppm; Concentration required for 3 log bacterial kill in 2 hours, used in combination ([8]; glutaraldehyde:7-ethyl-bicyclooxazolidine weight ratio 1:2): 11.9 ppm; Concentration required for 3 log bacterial kill in 2 hours, used in combination ([8]; glutaraldehyde:7-ethyl-bicyclooxazolidine weight ratio 1:5): 29.6 ppm; Concentration required for 3 log bacterial kill in 2 hours, used in combination ([8]; glutaraldehyde:7-ethyl-bicyclooxazolidine weight ratio 1:10): 39.5 ppm; Concentration required for 3 log bacterial kill in 2 hours, used in combination ([8]; glutaraldehyde:7-ethyl-bicyclooxazolidine weight ratio 1:20): 52.7 ppm; Concentration required for 3 log bacterial kill in 2 hours, used in combination ([8]; glutaraldehyde:7-ethyl-bicyclooxazolidine weight ratio 2:1): 4.4 ppm; Concentration required for 3 log bacterial kill in 2 hours, used in combination ([8]; glutaraldehyde:7-ethyl-bicyclooxazolidine weight ratio 5:1): 1.2 ppm; Concentration required for 3 log bacterial kill in 2 hours, used in combination ([8]; glutaraldehyde:7-ethyl-bicyclooxazolidine weight ratio 10:1): 0.6 ppm; Concentration required for 3 log bacterial kill in 2 hours, used in combination ([8]; glutaraldehyde:7-ethyl-bicyclooxazolidine weight ratio 20:1): 0.3 ppm; Concentration required for 3 log bacterial kill in 2 hours, used alone [8]: >2025 ppm
